# Experimental data taken from US12582697B2, “Antisecretory factor for use in treatment and/or prevention of acute respiratory failure” (LANTMÄNNEN MEDICAL AB, priority 2018, dated 2026).
# Where a SMILES comes first, the peptide text is derived from it.
# System: adult pigs with experimentally induced ARDS
# Assay: ARDS model: adverse side effects on cardiovascular parameters
# Assay type: in vivo, pig
# Settings: iv infusion 2 mg/kg, anaesthetized pigs
# Protocol: After ethical approval, 3 months old pigs (body weight 30-35 kg), in all 12, were purchased from a local farm and 2 pigs on 6 occasions brought to the laboratory in the morning on the day for the experiment. […] Upon arrival, the pigs were sedated and thereafter kept fully anaesthetized during the entire experiment until termination late the same day. Tracheostomy was performed and mechanical ventilation performed with a ventilator. This setup is visualized in FIG. 1. Tubes positioned in arteries, veins and via a vein also in the right heart. Equipment was implanted to enable the use of PiCCO instrument (Pulse index, Continuous Cardiac Output=PiCCO) in order to enable exact determination of the total blood volume in the lungs, extra-vascular lung water (EVLW) and cardiac function parameters. Blood pressure transducers were inserted in the pulmonary artery and in a central artery. Arterial blood gasses and additional blood parameters were checked at regular intervals. Oximetry was used to determine hemoglobin oxygen saturation in arterial blood. The core body temperature was kept automatically at desired normal level. EKG was recorded. […]
# Treatment with the peptide AF-16 or the vehicle started after the induction of the lung injury (i.e., after the injurious ventilation). […] The PiCCO values were determined once every hour for up to 4 hours after the infusion of the test substance. […]
smiles,measurement,value
"CC(C)C[C@H](NC(=O)CNC(=O)[C@@H](NC(=O)[C@H](CC(N)=O)NC(=O)[C@H](CC(N)=O)NC(=O)[C@H](CCC(=O)O)NC(=O)[C@@H]1CCCN1C(=O)[C@H](CC(N)=O)NC(=O)[C@H](CO)NC(=O)[C@H](CCCNC(=N)N)NC(=O)[C@@H](NC(=O)[C@H](CCCCN)NC(=O)[C@H](CO)NC(=O)[C@H](Cc1c[nH]cn1)NC(=O)[C@H](CS)NC(=O)[C@@H](N)C(C)C)[C@@H](C)O)C(C)C)C(=O)O [AF-16, VCHSKTRSNPENNVGL] (H-VCHSKTRSNPENNVGL-OH; N-terminus and C-terminus assumed)","adverse side effects on cardiovascular parameters, including blood pressure and heart rates",no adverse side effects could be demonstrated
